This note sets out measurements from patent publication US11136292B2, “Plant growth regulator compounds” (SYNGENTA PARTICIPATIONS AG, priority 2016, dated 2021).

Where two headings read alike, the source gives them in different places.

In the experiment the test system is NK Falkone 2015 corn seeds. As to the kind of experiment: Corn seed germination under cold stress (Example B1). The settings on record: Zea mays, cold stress 15° C.; for change in vivo at 2 µM: Rate 2 μM; for change in vivo at 10 µM: Rate 10 μM; for change in vivo at 50 µM: Rate 50 μM; for change in vivo at 250 µM: Rate 250 μM. The experiment is classed as in vivo. The method, then: The effect of compounds of formula (I) on the germination of NK Falkone 2015 corn seeds under cold stress was evaluated as follows. NK Falkone corn seeds were sorted by size using 2 sieves, one excluding very big seeds and the other with round holes of 8 to 9 mm diameter. The seeds retained by the latter sieve were used for the germination test. The corn seeds were placed in 24 well plates (each plate was considered as one experimental unit or replicate). Germination was initiated by the addition of 250 μl of distilled water containing 0.5% DMSO per well as a means for compound solubilization. 8 replicates (ie, 8 plates) were used for each treatment characterization. Plates were sealed using seal foil (Polyolefin Art. Nr. 900320) from HJ-BIOANALYTIK. All plates were placed horizontally on trolleys in a climatic chamber at 15° C. The experiment was laid out in a completely randomized design in climatic chamber with 75% Relative Humidity. Foils were pierced, one hole per well using a syringe after 72 hours for experiments performed at 15° C.
Germination was followed over time by taking photographs at different time points. Image analysis was performed automatically with a macro which was developed using the Image J software. A dynamic analysis of germination was carried out by fitting a logistic curve. Three parameters were calculated from the logistic curve: the T50; the slope and the plateau. All three parameters have a high agronomical relevance and are key requirements to ensure a good early crop-establishment. All the values are expressed as percentages compared to an untreated control. All the three parameters are calculated considering 8 replicates and the kinetic parameters are separately determined for each germination curve. Data in bold indicate germination enhancing statistically significant differences between treated seeds and untreated control (p<0.05). The T50 corresponds to the time needed for half of the seed population to germinate. Higher negative %-values indicate faster germination. The slope indicates how synchronous the germination of the seed population is. Positive values indicate steeper curve; the steeper the curve, the better and more uniform the germination is.

The mark [1] stands for this setting: slope of logistic germination curve, read-out: Slope (% vs control).
The mark [2] stands for this setting: time for half of seeds to germinate, control T50 = 110 hours, read-out: T50 (% vs control).

Regarding `CCOC(=O)/C(=C/OC1C=C(C)C(=O)O1)C1CCOc2ccccc21` (centres unmarked) [Compound I-90], under setting [1], the change in vivo at 2 µM was -10%, the change in vivo at 10 µM is -0.32%, the change in vivo at 50 µM is 4.6% and the change in vivo at 250 µM turned out to be 83.6%. Also, under setting [2], the change in vivo at 2 µM is 3.2%, the change in vivo at 10 µM came out at 2.8%, the change in vivo at 50 µM came out at 0.45% and the change in vivo at 250 µM was -6.7%.

For the compound `CCOC(=O)/C(=C/OC1OC(=O)C(C)=C1C)C1CCOc2ccccc21` (centres unmarked) [Compound I-91], under setting [1], the change in vivo at 2 µM is -15.3%, the change in vivo at 10 µM is -5.4%, the change in vivo at 50 µM is 18.8% and the change in vivo at 250 µM came out at 67.4%. Also, under setting [2], the change in vivo at 2 µM amounted to 2.5%, the change in vivo at 10 µM worked out at 2.7%, the change in vivo at 50 µM was -1.5% and the change in vivo at 250 µM was -6.1%.

As for `CCOC(=O)/C(=C/OC1OC(=O)C(C)=C1C)C1COc2ccccc21` (centres unmarked) [Compound I-95], under setting [1], the change in vivo at 2 µM is -2%, the change in vivo at 10 µM was -13.9%, the change in vivo at 50 µM was 2.7% and the change in vivo at 250 µM was determined as 81.5%. Besides, under setting [2], the change in vivo at 2 µM worked out at 1.6%, the change in vivo at 10 µM was 1.6%, the change in vivo at 50 µM stood at 0.6% and the change in vivo at 250 µM is -6.7%.

`CC1=CC(O/C=C2/C(=O)OC3c4ccccc4CC23)OC1=O` (centres unmarked) [Prior art 1]: under setting [1], the change in vivo at 2 µM is -0.7%, the change in vivo at 10 µM is -11.3%, the change in vivo at 50 µM turned out to be 6.2% and the change in vivo at 250 µM came to 36.3%. For the same compound, under setting [2], the change in vivo at 2 µM is -1.5%, the change in vivo at 10 µM is -0.1%, the change in vivo at 50 µM was -1.85% and the change in vivo at 250 µM was -3.4%.

`CC1=C(C)C(O/C=C2/C(=O)OC3c4ccccc4CC23)OC1=O` (centres unmarked) [Prior art 2]: under setting [1], the change in vivo at 2 µM is -1.3%, the change in vivo at 10 µM amounted to 1.4%, the change in vivo at 50 µM turned out to be 9.6% and the change in vivo at 250 µM came out at 15.8%. Besides, under setting [2], the change in vivo at 2 µM was -1.5%, the change in vivo at 10 µM was found to be 1.7%, the change in vivo at 50 µM is -1.6% and the change in vivo at 250 µM is -2.1%.

For `CC1=CC(O/C=C2/C(=O)OC3Cc4ccccc4C23)OC1=O` (centres unmarked) [Prior art 3], under setting [1], the change in vivo at 2 µM is -0.7%, the change in vivo at 10 µM was determined as 2.2%, the change in vivo at 50 µM came out at 4% and the change in vivo at 250 µM came out at 14.1%. Under setting [2], the change in vivo at 2 µM amounted to 1.6%, the change in vivo at 10 µM was found to be 0%, the change in vivo at 50 µM is -0.8% and the change in vivo at 250 µM was -0.5%.

As for `COC(=O)/C(=C/OC1C=C(C)C(=O)O1)c1ccccc1` (centres unmarked) [Prior art 4], under setting [1], the change in vivo at 2 µM was -7.7%, the change in vivo at 10 µM was 14.9%, the change in vivo at 50 µM is -11.4% and the change in vivo at 250 µM was 4.1%. For the same compound, under setting [2], the change in vivo at 2 µM worked out at 1.2%, the change in vivo at 10 µM was -3.4%, the change in vivo at 50 µM was 2.4% and the change in vivo at 250 µM is 0.1%.
